Active and inactive are the calls of the source. No cut-off for these calls is given here.
Key:
[1] = molecular target: NPM/ALK (Nucleophosmin/ALK tyrosine kinase receptor) (Homo sapiens) (UniProt Q9UM73+P06748); assay: Induction of NPM-ALK degradation in human KARPAS-299 cells assessed as reduction in NPM-ALK protein level at 1 uM measured after 24 hrs by Western blot analysis; format: cell-based
[2] = molecular target: T1, Protein cereblon/ALK tyrosine kinase receptor/Nucleophosmin (Homo sapiens) (UniProt Q9UM73+P06748+Q96SW2); assay: Protac activity at CRBN/NPM-ALK in human KARPAS-299 cells assessed as induction of NPM-ALK fusion protein degradation at 1 uM incubated for 24 hrs by Western blot analysis relative to control; format: cell-based
[3] = molecular target: T1, Protein cereblon/ALK tyrosine kinase receptor/Nucleophosmin (Homo sapiens); assay: Protac activity at CRBN/NPM-ALK in human KARPAS-299 cells assessed as induction of NPM-ALK fusion protein degradation at 0.1 uM incubated for 24 hrs by Western blot analysis relative to control; format: cell-based
[4] = molecular target: Signal transducer and activator of transcription 3 (Homo sapiens) (UniProt P40763); assay: Inhibition of STAT3 phosphorylation in human KARPAS-299 cells as 100 nM measured after 24 hrs by Western blot analysis relative to control; format: cell-based
[5] = test system: KARPAS-299; assay: Downregulation of ALK protein expression in human KARPAS-299 cells at 1 uM incubated for 24 hrs by iTRAQ proteomics analysis; format: functional, cell-based
[6] = Half life in Sprague-Dawley rat at 50 mg/kg, ip administered as single dose measured for 24 hrs by LC-MS/MS analysis; format: ADME, organism-based; settings: in vivo
[7] = test system: KARPAS-299; assay: Antitumor activity against human KARPAS-299 cells xenografted in NCG mouse assessed as tumor growth inhibition at 10 mg/kg, iv administered once every day for 3 weeks and measured every 3 days relative to control; format: functional; settings: KARPAS-299, 504 h, read-out: TGI
[8] = test system: KARPAS-299; assay: Downregulation of SOCS3 protein expression in human KARPAS-299 cells at 1 uM incubated for 24 hrs by iTRAQ proteomics analysis; format: functional, cell-based
[9] = molecular target: T2, Protein cereblon/ALK tyrosine kinase receptor/Echinoderm microtubule-associated protein-like 4 (Homo sapiens) (UniProt Q9UM73+Q9HC35+Q96SW2); assay: Protac activity at CRBN/EML4-ALK in human NCI-H3122 cells assessed as reduction in EML4-ALK fusion protein level at 100 nM measured after 16 hrs by Western blot analysis relative to control; format: cell-based; parameters: scale not given: the % may be the effect or the level left
[10] = test system: BaF3; assay: Antiproliferative activity against crizotinib-resistant mouse BaF3 cells expressing EML-ALK L1196M mutant assessed as cell viability at 1 uM incubated for 72 hrs by Celltitre-Glo assay relative to control; format: functional; settings: read-out: Activity
[11] = test system: NCI-H3122; assay: Antiproliferative activity against ALK-positive human NCI-H3122 cells assessed as inhibition of cell proliferation measured after 72 hrs by MTT assay; format: functional, cell-based; settings: NCI-H3122, 72 h
[12] = test system: KARPAS-299; assay: Antitumor activity against human KARPAS-299 cells xenografted in NCG mouse assessed as reduction in tumor volume at 25 to 50 mg/kg, ip administered once every day for 3 weeks and measured every 3 days; format: functional, organism-based; settings: dose 25-50 mg/kg
[13] = Tmax in Sprague-Dawley rat at 1 mg/kg, iv administered as single dose measured for 24 hrs by LC-MS/MS analysis; format: ADME, organism-based; settings: in vivo
[14] = Cmax in Sprague-Dawley rat at 1 mg/kg, iv administered as single dose measured for 24 hrs by LC-MS/MS analysis; format: ADME, organism-based; parameters: time 24 hrs, dose 1 mg/kg, route iv; settings: in vivo
[15] = molecular target: Protein cereblon/ALK tyrosine kinase receptor/Nucleophosmin (Homo sapiens, UniProt P06748+Q96SW2+Q9UM73); assay: Protac activity at CRBN/NPM-ALK in human KARPAS-299 cells assessed as induction of NPM-ALK fusion protein degradation incubated for 48 hrs by Western blot analysis; format: cell-based
[16] = MRTlast in Sprague-Dawley rat at 1 mg/kg, iv administered as single dose measured for 24 hrs by LC-MS/MS analysis; format: ADME, organism-based; settings: in vivo
[17] = molecular target: Signal transducer and activator of transcription 3 (Homo sapiens) (UniProt P40763); assay: Inhibition of STAT3 phosphorylation in human KARPAS-299 cells as 0.01 to 1 uM measured after 24 hrs by Western blot analysis; format: cell-based; settings: dose 0.01-1 µM
[18] = AUC (0 to t) in Sprague-Dawley rat at 1 mg/kg, iv administered as single dose measured for 24 hrs by LC-MS/MS analysis; format: ADME, organism-based; parameters: time 24 hrs, dose 1 mg/kg, route iv; settings: in vivo
[19] = molecular target: T2, Protein cereblon/ALK tyrosine kinase receptor/Echinoderm microtubule-associated protein-like 4 (Homo sapiens); assay: Protac activity at CRBN/EML4-ALK in human NCI-H3122 cells assessed as induction of EML4-ALK fusion protein degradation at 1 uM incubated for 16 hrs by Western blot analysis relative to control; format: cell-based
[20] = molecular target: T2, Protein cereblon/ALK tyrosine kinase receptor/Echinoderm microtubule-associated protein-like 4 (Homo sapiens); assay: Protac activity at CRBN/EML4-ALK in human NCI-H3122 cells assessed as induction of EML4-ALK fusion protein degradation at 0.1 uM incubated for 16 hrs by Western blot analysis relative to control; format: cell-based
[21] = Toxicity in NCG mouse xenografted with human KARPAS-299 cells assessed as lung damage at 10 mg/kg, iv administered once every day for 3 weeks by H and E staining based analysis; format: organism-based; settings: in vivo, 504 h
[22] = Toxicity in NCG mouse xenografted with human KARPAS-299 cells assessed as kidney damage at 10 mg/kg, iv administered once every day for 3 weeks by H and E staining based analysis; format: organism-based; settings: in vivo, 504 h
[23] = molecular target: T2, Protein cereblon/ALK tyrosine kinase receptor/Echinoderm microtubule-associated protein-like 4 (Homo sapiens); assay: Protac activity at CRBN/EML4-ALK in human NCI-H3122 cells assessed as induction of EML4-ALK fusion protein degradation at 0.25 uM incubated for 16 hrs by Western blot analysis; format: cell-based
[24] = Toxicity in NCG mouse xenografted with human KARPAS-299 cells assessed as spleen damage at 10 mg/kg, iv administered once every day for 3 weeks by H and E staining based analysis; format: organism-based; settings: in vivo, 504 h
[25] = Toxicity in NCG mouse xenografted with human KARPAS-299 cells assessed as heart damage at 10 mg/kg, iv administered once every day for 3 weeks by H & E staining based analysis; format: organism-based; settings: in vivo, 504 h
[26] = molecular target: T3, ALK tyrosine kinase receptor (Homo sapiens, UniProt Q9UM73); assay: Inhibition of ALK phosphorylation in human KARPAS-299 cells at 0.01 to 1 uM measured after 24 hrs by Western blot analysis; format: cell-based; settings: dose 0.01-1 µM
Target sequence in this assay (Q9UM73 19-1620 limits assumed): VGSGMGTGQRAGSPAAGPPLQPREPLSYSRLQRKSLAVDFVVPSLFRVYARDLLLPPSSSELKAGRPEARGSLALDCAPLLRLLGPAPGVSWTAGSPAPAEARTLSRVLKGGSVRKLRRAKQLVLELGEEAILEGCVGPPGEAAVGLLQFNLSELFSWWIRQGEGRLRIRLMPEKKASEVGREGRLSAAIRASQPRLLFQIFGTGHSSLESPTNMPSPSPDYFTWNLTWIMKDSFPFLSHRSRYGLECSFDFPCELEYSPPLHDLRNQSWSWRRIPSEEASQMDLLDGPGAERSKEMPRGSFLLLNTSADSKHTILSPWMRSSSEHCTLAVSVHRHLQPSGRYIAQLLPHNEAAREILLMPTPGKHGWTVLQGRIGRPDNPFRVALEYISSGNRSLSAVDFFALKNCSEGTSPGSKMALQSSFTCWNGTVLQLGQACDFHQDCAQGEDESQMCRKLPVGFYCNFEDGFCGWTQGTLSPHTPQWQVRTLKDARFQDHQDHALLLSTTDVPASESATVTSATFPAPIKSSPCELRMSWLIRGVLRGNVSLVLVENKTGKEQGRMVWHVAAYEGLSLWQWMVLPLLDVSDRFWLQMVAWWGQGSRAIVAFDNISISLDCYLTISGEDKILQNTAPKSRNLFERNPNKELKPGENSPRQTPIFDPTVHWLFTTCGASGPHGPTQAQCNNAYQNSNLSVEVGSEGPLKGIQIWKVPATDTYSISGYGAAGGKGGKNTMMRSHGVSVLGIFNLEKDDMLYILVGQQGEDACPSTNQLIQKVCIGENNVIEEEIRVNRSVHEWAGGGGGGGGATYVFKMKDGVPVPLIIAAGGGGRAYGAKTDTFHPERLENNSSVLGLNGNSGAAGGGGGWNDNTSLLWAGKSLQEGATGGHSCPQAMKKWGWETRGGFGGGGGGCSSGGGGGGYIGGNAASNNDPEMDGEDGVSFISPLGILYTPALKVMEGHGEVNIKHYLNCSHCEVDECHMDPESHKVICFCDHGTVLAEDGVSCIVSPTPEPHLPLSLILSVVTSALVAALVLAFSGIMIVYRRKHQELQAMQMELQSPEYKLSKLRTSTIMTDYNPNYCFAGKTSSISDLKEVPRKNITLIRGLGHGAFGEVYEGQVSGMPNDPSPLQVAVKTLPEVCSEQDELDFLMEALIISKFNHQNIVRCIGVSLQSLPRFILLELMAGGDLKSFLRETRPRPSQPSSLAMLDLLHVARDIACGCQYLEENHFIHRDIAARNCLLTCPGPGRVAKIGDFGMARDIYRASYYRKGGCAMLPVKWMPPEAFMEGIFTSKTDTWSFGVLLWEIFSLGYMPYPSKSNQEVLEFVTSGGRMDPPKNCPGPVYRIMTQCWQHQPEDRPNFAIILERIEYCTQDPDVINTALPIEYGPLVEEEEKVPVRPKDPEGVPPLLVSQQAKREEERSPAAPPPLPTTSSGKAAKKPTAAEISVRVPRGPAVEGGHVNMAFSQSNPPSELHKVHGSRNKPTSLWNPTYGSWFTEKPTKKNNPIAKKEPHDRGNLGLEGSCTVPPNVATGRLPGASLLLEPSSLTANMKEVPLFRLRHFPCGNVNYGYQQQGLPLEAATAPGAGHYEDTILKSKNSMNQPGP

[27] = molecular target: T3, ALK tyrosine kinase receptor
[28] = molecular target: T1, Protein cereblon/ALK tyrosine kinase receptor/Nucleophosmin (Homo sapiens); assay: Protac activity at CRBN/NPM-ALK in human KARPAS-299 cells assessed as induction of NPM-ALK fusion protein degradation at 1 uM incubated for 24 hrs followed by compound washout and measured after 24 hrs by Western blot analysis; format: cell-based
[29] = Tmax in Sprague-Dawley rat at 50 mg/kg, ip administered as single dose measured for 24 hrs by LC-MS/MS analysis; format: ADME, organism-based; settings: in vivo
[30] = test system: KARPAS-299; assay: Antitumor activity against human KARPAS-299 cells xenografted in NCG mouse assessed as reduction in tumor weight at 5 to 10 mg/kg, iv administered once every day for 3 weeks and measured every 3 days; format: functional, organism-based; settings: dose 5-10 mg/kg
[31] = test system: KARPAS-299; assay: Downregulation of SESN2 protein expression in human KARPAS-299 cells at 1 uM incubated for 24 hrs by iTRAQ proteomics analysis; format: functional, cell-based
[32] = Volume of distribution in Sprague-Dawley rat at 50 mg/kg, ip administered as single dose measured for 24 hrs by LC-MS/MS analysis; format: ADME, organism-based; settings: in vivo

T1 sequence (P06748 whole entry partner, the tested form may be a part): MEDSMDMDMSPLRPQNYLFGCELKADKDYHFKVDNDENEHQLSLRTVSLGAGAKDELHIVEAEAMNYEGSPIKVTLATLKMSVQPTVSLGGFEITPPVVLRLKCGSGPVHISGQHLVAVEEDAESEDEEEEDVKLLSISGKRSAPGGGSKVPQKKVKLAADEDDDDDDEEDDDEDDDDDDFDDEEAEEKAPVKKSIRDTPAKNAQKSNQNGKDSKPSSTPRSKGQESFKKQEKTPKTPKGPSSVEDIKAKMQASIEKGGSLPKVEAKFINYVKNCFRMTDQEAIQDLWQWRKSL
T1 sequence (Q96SW2 whole entry partner, the tested form may be a part): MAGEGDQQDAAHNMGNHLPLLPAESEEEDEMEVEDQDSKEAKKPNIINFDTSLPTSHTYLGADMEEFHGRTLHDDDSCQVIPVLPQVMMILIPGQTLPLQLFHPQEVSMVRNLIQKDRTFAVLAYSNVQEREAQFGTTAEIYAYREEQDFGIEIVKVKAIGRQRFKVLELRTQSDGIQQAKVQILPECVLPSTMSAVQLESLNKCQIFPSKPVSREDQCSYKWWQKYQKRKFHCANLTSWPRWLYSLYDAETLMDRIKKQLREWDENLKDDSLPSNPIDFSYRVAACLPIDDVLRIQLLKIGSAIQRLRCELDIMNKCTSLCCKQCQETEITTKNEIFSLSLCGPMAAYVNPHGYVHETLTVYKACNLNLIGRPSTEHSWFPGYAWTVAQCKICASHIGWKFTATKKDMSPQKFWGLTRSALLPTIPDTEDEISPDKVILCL
T1 sequence (Q9UM73 19-1620 limits assumed): as the sequence (Q9UM73 19-1620 limits assumed) above
T2 sequence (Q96SW2 whole entry partner, the tested form may be a part): as the sequence (Q96SW2 whole entry partner, the tested form may be a part) above
T2 sequence (Q9HC35 whole entry partner, the tested form may be a part): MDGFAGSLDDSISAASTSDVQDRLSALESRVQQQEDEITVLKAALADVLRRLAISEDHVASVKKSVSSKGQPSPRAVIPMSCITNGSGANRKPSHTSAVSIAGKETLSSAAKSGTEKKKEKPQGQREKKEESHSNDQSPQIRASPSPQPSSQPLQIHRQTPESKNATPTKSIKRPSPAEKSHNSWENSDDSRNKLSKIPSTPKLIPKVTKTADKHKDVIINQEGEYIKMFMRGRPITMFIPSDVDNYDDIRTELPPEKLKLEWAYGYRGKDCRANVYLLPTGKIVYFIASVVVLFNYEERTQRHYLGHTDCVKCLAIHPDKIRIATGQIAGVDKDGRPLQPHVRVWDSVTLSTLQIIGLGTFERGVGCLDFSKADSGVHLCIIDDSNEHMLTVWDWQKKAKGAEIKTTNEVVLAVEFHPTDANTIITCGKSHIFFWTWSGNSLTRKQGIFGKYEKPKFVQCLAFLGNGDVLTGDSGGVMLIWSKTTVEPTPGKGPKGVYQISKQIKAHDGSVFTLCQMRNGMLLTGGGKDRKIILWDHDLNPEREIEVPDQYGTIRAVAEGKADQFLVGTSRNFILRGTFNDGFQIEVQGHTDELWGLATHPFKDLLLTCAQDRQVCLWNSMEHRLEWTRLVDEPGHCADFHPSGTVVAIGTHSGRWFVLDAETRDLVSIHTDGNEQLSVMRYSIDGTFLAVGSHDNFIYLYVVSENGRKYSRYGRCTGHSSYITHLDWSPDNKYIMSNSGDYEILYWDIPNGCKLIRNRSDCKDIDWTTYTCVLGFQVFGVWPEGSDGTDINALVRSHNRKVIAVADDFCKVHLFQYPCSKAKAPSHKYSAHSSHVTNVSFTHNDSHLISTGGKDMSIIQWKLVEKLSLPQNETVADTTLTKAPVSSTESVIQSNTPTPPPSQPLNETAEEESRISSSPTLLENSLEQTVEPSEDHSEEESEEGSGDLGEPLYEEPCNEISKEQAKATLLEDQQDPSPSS
T2 sequence (Q9UM73 19-1620 limits assumed): as the sequence (Q9UM73 19-1620 limits assumed) above
Chain of Signal transducer and activator of transcription 3 (Homo sapiens) (P40763 whole entry): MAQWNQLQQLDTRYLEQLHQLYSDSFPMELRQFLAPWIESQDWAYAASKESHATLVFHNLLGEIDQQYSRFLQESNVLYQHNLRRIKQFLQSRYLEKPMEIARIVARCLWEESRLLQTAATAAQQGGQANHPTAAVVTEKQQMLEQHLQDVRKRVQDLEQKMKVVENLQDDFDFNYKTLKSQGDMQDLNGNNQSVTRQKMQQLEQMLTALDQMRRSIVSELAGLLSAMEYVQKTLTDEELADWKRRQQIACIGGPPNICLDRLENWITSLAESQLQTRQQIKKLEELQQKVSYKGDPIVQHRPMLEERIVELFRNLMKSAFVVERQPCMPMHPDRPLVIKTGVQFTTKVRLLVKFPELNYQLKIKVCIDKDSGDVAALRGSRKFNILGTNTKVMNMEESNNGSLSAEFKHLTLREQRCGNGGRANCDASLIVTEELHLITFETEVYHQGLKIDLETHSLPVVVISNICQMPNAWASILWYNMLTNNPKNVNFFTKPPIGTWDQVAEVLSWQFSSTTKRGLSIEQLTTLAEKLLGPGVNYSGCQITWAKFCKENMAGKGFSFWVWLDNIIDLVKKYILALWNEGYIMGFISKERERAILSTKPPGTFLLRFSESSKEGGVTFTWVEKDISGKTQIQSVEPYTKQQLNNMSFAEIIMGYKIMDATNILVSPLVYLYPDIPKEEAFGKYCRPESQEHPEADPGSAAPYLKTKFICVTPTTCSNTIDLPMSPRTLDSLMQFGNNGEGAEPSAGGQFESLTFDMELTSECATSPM
Chain of NPM/ALK (Nucleophosmin/ALK tyrosine kinase receptor) (Homo sapiens) (P06748 whole entry partner, the tested form may be a part): as the sequence (P06748 whole entry partner, the tested form may be a part) above
Chain of NPM/ALK (Nucleophosmin/ALK tyrosine kinase receptor) (Homo sapiens) (Q9UM73 19-1620 limits assumed): as the sequence (Q9UM73 19-1620 limits assumed) above

Activity [1]: Active | Activity [2]: 85% | Activity [3]: 8.6% | inhibition [4]: > 85% | half-life [6]: 1830 min | Activity [9]: 22.6% | IC50 [11]: 62 nM | Tmax [13]: 1.8 min | Cmax [14]: 994 ng/mL | EC50 [15]: 116 nM | MRT last at 24 h [16]: 4.2 min | inhibition [17]: Active | AUC(0-t) at 24 h [18]: 146 ng·h/mL | Activity [19]: 83.6% | Activity [20]: 50.3% | Activity [23]: Active | inhibition [26]: Active | IC50 [27]: 13600 nM | Activity [28]: Active | Tmax [29]: 15 min | Vd [32]: 1685.67 L/kg
Compound: CCc1cc2c(cc1N1CCN(C(=O)CNc3cccc4c3C(=O)N(C3CCC(=O)NC3=O)C4=O)CC1)C(C)(C)c1[nH]c3cc(C#N)ccc3c1C2=O (configuration not stated)
Activity [5]: Active | inhibition in vivo at 10 mg/kg [7]: 75.8% | Activity [8]: Active | viability at 1 µM [10]: 6.1% | Activity [12]: Active | Activity [21]: Non-Toxic | Activity [22]: Non-Toxic | Activity [24]: Non-Toxic | Activity [25]: Non-Toxic | Activity [30]: Active | Activity [31]: Active
